Measured values taken from patent US10196363B2, “Dihydropyrimidin-2-one compounds and medical use thereof” (JAPAN TOBACCO INC., priority 2014, dated 2019).
Where two headings read alike, the source gives them in different places.

Columns and labels:
human RORγ = target: T1, human RORγ (Homo sapiens, UniProt P51449); experiment: In vitro assay of inhibitory effect against RORγ transcriptional activity (GAL4-hRORγ LBD luciferase reporter gene assay in CHO cells); format: cell-based; conditions: for hRORγ luciferase activity, %-of-control: vehicle-control 0.2% DMSO alone = 100%
T1 construct: human RORγ, from Ser253 to Lys518; expressed in transfected cells; host or cells: CHO cells (Chinese hamster ovary), transient co-transfection with pG5-Luc
T1 sequence (P51449 253-518): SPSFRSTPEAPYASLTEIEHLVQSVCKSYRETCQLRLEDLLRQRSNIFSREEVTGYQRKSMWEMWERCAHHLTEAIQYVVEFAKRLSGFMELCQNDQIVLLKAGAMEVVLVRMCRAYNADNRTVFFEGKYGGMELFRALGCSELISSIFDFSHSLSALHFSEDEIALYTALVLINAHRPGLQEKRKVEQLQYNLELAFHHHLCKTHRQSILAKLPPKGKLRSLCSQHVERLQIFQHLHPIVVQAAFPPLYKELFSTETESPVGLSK
Method in brief: (§1)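 Transcriptional activity of human or mouse RORγ LBD, tethered to the GAL4 DNA-binding domain, is monitored by a GAL4-dependent firefly luciferase reporter in transiently transfected CHO cells. Test articles are incubated for 2 days; values are %-of-control or fitted EC50.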

mouse RORγ = target: T2, mouse RORγ (Mus musculus, UniProt P51450); experiment: In vitro assay of inhibitory effect against RORγ transcriptional activity (GAL4-mRORγ LBD luciferase reporter gene assay in CHO cells); format: cell-based; conditions: for mRORγ luciferase activity, %-of-control: vehicle-control 0.2% DMSO alone = 100%
T2 construct: mouse RORγ, from Ile251 to Lys516; expressed in transfected cells; host or cells: CHO cells (Chinese hamster ovary), transient co-transfection with pG5-Luc
T2 sequence (P51450 251-516): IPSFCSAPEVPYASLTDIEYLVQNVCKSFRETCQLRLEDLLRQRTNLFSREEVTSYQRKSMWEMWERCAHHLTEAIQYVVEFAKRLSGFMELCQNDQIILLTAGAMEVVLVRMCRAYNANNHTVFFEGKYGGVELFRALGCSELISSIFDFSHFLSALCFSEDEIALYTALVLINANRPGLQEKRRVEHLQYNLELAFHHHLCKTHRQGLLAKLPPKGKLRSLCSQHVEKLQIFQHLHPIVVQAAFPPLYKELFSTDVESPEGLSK
Method in brief: as §1

[1] = GAL4-hRORγ LBD luciferase reporter, CHO cells, read-out: LUC EC50 hRORγ
[2] = GAL4-mRORγ LBD luciferase reporter, CHO cells, read-out: LUC EC50 mRORγ
[3] = GAL4-hRORγ LBD / pG5-Luc in CHO cells, 2 days incubation
[4] = GAL4-mRORγ LBD / pG5-Luc in CHO cells, 2 days incubation
[5] = value in parentheses beside the > EC50 bound
[6] = value in parentheses beside the EC50 bound

SMILES	EC50 (human RORγ; [1])	EC50 (mouse RORγ; [2])	EC50 (human RORγ; [3])	EC50 (mouse RORγ; [4])	also measured
COC[C@H]1C[C@@H](C2=CN(CCC(=O)O)C(=O)N[C@@]2(C)c2ccc(CCC(C)(C)C)c(Cl)c2)C1 [Example 206]	81 nM	117 nM			
CC(C)C1=CN([C@H]2C[C@H](C(=O)O)C2)C(=O)N[C@@]1(C)c1cc(Cl)c(CCC(C)(C)C)cc1F [Example 104]			50 nM	31 nM	
CC(C)C1=CN([C@H]2C[C@H](C(=O)O)C2)C(=O)N[C@]1(C)c1ccc(CCC(C)(C)C)c(Cl)c1 [Example 41]			> 8000 nM	> 8000 nM	hRORγ luciferase activity, %-of-control (human RORγ; [5]): (59%); mRORγ luciferase activity, %-of-control (mouse RORγ; [5]): (61%)
COCCC1=CN(c2ccc(C(=O)O)cc2)C(=O)N[C@@]1(C)c1ccc(C2=CCC(C)(C)CC2)c(Cl)c1 [Example 332]	12 nM	13 nM			
COCCC1=CN(C23CCC(C(=O)O)(C2)C3)C(=O)N[C@@]1(C)c1ccc([C@H]2C[C@@H](C(C)C)C2)c(Cl)c1 [Example 330]	19 nM	14 nM			
CC(C)C1=CN(CCC(=O)O)C(=O)N[C@@]1(C)c1ccc(C2CCCC2)c(Cl)c1 [Example 156]			520 nM	166 nM	
COc1cc(N2C=C(C3CC(F)(F)C3)[C@](C)(c3ccc(CCC(C)(C)C)c(Cl)c3)NC2=O)ccc1C(=O)O [Example 346]	26 nM	18 nM			
CC(C)C1=CN([C@H]2CC[C@@H](C(=O)O)CC2)C(=O)N[C@@]1(C)c1ccc(CCC(C)(C)C)c(Cl)c1 [Example 67]			23 nM	17 nM	
C[C@@]1(c2ccc(OCCC3CC3)c(Cl)c2)NC(=O)N(c2ccc(C(=O)O)cc2)C=C1C1CC(F)(F)C1 [Example 350]	109 nM	52 nM			
CC(C)C1=CN(CCc2ccc(C(=O)O)cc2)C(=O)N[C@]1(C)c1ccc(CCC(C)(C)C)c(Cl)c1 [Example 49]			983 nM	832 nM	
CC(C)C1=CN(c2ccc(C(=O)O)cc2)C(=O)N[C@@]1(C)c1ccc(CCC(C)(C)C)c(Cl)c1 [Example 159, 4-{(S)-4-[3-chloro-4-(3,3-dimethyl-butyl)-phenyl]-5-isopropyl-4-methyl-2-oxo-3,4-dihydro-2H-pyrimidin-1-yl}-benzoic Acid]			21 nM	23 nM	
CC(C)C1=CN(CCC(=O)O)C(=O)N[C@@]1(C)c1ccc(C2=CCC(C)(C)CC2)c(Cl)c1 [Example 116, 3-{(S)-4-[3-chloro-4-(4,4-dimethyl-cyclohex-1-enyl)-phenyl]-5-isopropyl-4-methyl-2-oxo-3,4-dihydro-2H-pyrimidin-1-yl}-propionic Acid]			15 nM	22 nM	
CC(C)COc1ccc([C@]2(C)NC(=O)N(CCC(=O)O)C=C2C(C)C)cc1Cl [Example 183]			118 nM	78 nM	
CC(C)(C)CCc1ccc([C@]2(C)NC(=O)N(CCCC(=O)O)C=C2C2CCC2)cc1Cl [Example 59]			12 nM	20 nM	
CC(C)C1=CN([C@H]2C[C@](C)(C(=O)O)C2)C(=O)N[C@@]1(C)c1ccc(CCC(C)(C)C)c(Cl)c1 [Example 112]			21 nM	19 nM	
COCCC1=CN(CCC(=O)O)C(=O)N[C@@]1(C)c1ccc(CC2CCCCC2)c(Cl)c1 [Example 335]	26 nM	11 nM			
CC(C)COc1c(F)cc([C@]2(C)NC(=O)N(CCC(=O)O)C=C2C(C)C)cc1Cl [Example 194]	58 nM	28 nM			
Cc1cc(C(=O)O)ccc1N1C=C(C(C)C)[C@](C)(c2ccc(CCC(C)(C)C)c(Cl)c2)NC1=O [Example 220]	22 nM	29 nM			
CC(C)C1=CN(CCC(=O)O)C(=O)N[C@@]1(C)c1ccc(CCC(C)(C)C(F)(F)F)c(Cl)c1 [Example 185]			9 nM	14 nM	
CCC(C)C1=CN(CCCC(=O)O)C(=O)NC1(C)c1ccc(CCC(C)(C)C)c(Cl)c1 (single isomer, unassigned) [Example 33]			435 nM	617 nM	
COCCC1=CN(c2ccc(C(=O)O)cc2)C(=O)N[C@@]1(C)c1ccc(CCC(C)(C)C)c(C(F)(F)F)c1 [Example 323]	51 nM	23 nM			
CC(C)(C)COc1ccc(C2NC(=O)NC=C2C(C)(C)CC(=O)O)cc1Cl (racemic) [Example 4]			1440 nM	675 nM	

SMILES	EC50 (human RORγ; [1])	EC50 (mouse RORγ; [2])	EC50 (human RORγ; [3])	EC50 (mouse RORγ; [4])	also measured
CC(C)C1=CN(CCCCC(=O)O)C(=O)NC1(C)c1ccc(OCC(C)(C)C)c(Cl)c1 (racemic) [Example 18]			51 nM	28 nM	
COCC(C)C1=CN(C23CCC(C(=O)O)(C2)C3)C(=O)N[C@@]1(C)c1ccc(CCC(C)(C)C)c(Cl)c1 (single isomer, unassigned) [Example 351]	4 nM	11 nM			
COc1cc(C(=O)O)ccc1N1C=C(C(C)C)[C@](C)(c2ccc(CCC(C)(C)C)c(Cl)c2)NC1=O [Example 221]	25 nM	24 nM			
CC(C)C1=CN(CCC(=O)O)C(=O)N[C@@]1(C)c1ccc([C@H]2C[C@@H](C(C)C)C2)c(Cl)c1 [Example 258, 3-{(S)-4-[3-Chloro-4-(3-isopropyl-cyclobutyl)-phenyl]-5-isopropyl-4-methyl-2-oxo-3,4-dihydro-2H-pyrimidin-1-yl}-propionic Acid]	22 nM	16 nM			
CC(C)C1=CN(C23CC(C(=O)O)(C2)C3)C(=O)N[C@@]1(C)c1ccc(CCC(C)(C)C)c(Cl)c1 [Example 186]			91 nM	116 nM	
CC(C)C1=CN(C2CCCC2C(=O)O)C(=O)N[C@@]1(C)c1ccc(CCC(C)(C)C)c(Cl)c1 (single isomer, unassigned) [Example 242]	78 nM	58 nM			
CC(C)CC1=CN(CCCC(=O)O)C(=O)N[C@]1(C)c1ccc(CCC(C)(C)C)c(Cl)c1 [Example 37]			154 nM	282 nM	
CC(C)(C)CCc1ccc([C@@]2(C)NC(=O)N([C@H]3C[C@H](C(=O)O)C3)C=C2C2CC(F)(F)C2)cc1Cl [Example 95]			> 3200 nM	5680 nM	hRORγ luciferase activity, %-of-control (human RORγ; [5]): (66%)
CO[C@H]1C[C@H](N2C=C(C(C)(C)CCC(=O)O)[C@](C)(c3ccc(CCC(C)(C)C)c(Cl)c3)NC2=O)C1 [Example 197]	13 nM	23 nM			
CC(C)C1=CN(CCC(=O)O)C(=O)N[C@@]1(C)c1ccc(CCC(C)(C)CO)c(Cl)c1 [Example 260]	439 nM	492 nM			
COC(=O)[C@H]1C[C@H](N2C=C(C(C)(C)CCCO)[C@@](C)(c3ccc(CCC(C)(C)C)c(Cl)c3)NC2=O)C1 (single isomer, unassigned) [Example 190]	> 8000 nM	> 8000 nM			hRORγ luciferase activity, %-of-control (human RORγ; [6]): (74%); mRORγ luciferase activity, %-of-control (mouse RORγ; [6]): (66%)
CC(C)(C)CCc1ccc(C2(C)NC(=O)N(CCC(=O)O)C=C2C2(C)CC2)cc1Cl (single isomer, unassigned) [Example 171]			12 nM	14 nM	
CC(C)C1=CN(CCC(=O)O)C(=O)N[C@@]1(C)c1ccc(COC(C)(C)C)c(Cl)c1 [Example 147]			59 nM	30 nM	
CC(C)(C)CCc1ccc([C@]2(C)NC(=O)N(C3CCC(F)(F)CC3)C=C2[C@H]2C[C@@H](C(=O)O)C2)cc1Cl [Example 246]	10 nM	22 nM			
CC(C)C1=CN(c2ccc(C(=O)O)cc2)C(=O)N[C@@]1(C)c1ccc(CCC(C)(C)C)c(F)c1 [Example 356]	21 nM	15 nM			
CC(C)C1=CN(CCC(=O)O)C(=O)N[C@@]1(C)c1ccc(C2CC2C(C)(C)C)c(Cl)c1 (single isomer, unassigned) [Example 170]			58 nM	40 nM	
CC(C)C1=CN(CCC(=O)O)C(=O)N[C@]1(C)c1ccc(CCC2CCC2)c(Cl)c1 [Example 121]			> 8000 nM	> 8000 nM	hRORγ luciferase activity, %-of-control (human RORγ; [5]): (62%); mRORγ luciferase activity, %-of-control (mouse RORγ; [5]): (85%)
CC(C)C1=CN(CCC(=O)O)C(=O)N[C@@]1(C)c1ccc(CC2CCCC2)c(Cl)c1 [Example 263]	26 nM	18 nM			
CC(C)C1=CN(CCC(=O)O)C(=O)N[C@@]1(C)c1ccc(OCC(C)(C)C)c(Cl)c1 [Example 126]			37 nM	27 nM	
CC(C)(C)CCc1ccc([C@]2(C)NC(=O)N(CCCC(=O)O)C=C2C2CC(F)(F)C2)cc1Cl [Example 146]			14 nM	12 nM	
CC(C)(C)COc1ccc(C2NC(=O)NC=C2C(C)(C)C(=O)O)cc1Cl (racemic) [Example 2]			> 20000 nM	13100 nM	hRORγ luciferase activity, %-of-control (human RORγ; [5]): (55%)
